Square brackets hold non-standard residues; d marks the D form. Peptide text beside a SMILES is read from it. Ala(1H-tetrazol-5-yl) = N[C@@H](Cc1nnn[nH]1)C(=O)O
Assay: Peptide stability tests 2 and 3: Tris buffer pH 7.0, stored at 60° C., HPLC conditions 2
Assay type: physicochemical
Conditions: 100 μM peptide, Tris buffer pH 7.0, 60° C.; for survival rate after correction for water, 60° C., 2-week storage: 2 weeks
Procedure: (§1) Peptides 1, 2 and 6 to 9 synthesized in Example 2 were weighed and dissolved in Tris buffer (pH 7.0) to prepare 1.0 mM peptide solutions. The solutions were filtered with a Chromatdisk (product of Merck Millipore, Millex-GV, 0.22 μm). Each filtrate was diluted to 100 μM with Tris buffer (pH 7.0) and dispensed into a tube (Protein LoBind Tube by Eppendorf Co.). The prepared peptide solutions were incubated for 1 week or 2 weeks in a 60° C. thermostatic bath to obtain stored samples. A simultaneously prepared sample among the peptide solutions that was not stored was used as a standard sample (initial sample). The standard sample and the stored samples were stored at −30° C. until sample analysis.
Each stored sample was measured under the following HPLC analysis conditions 2, and the survival rate after correction for water for each peptide among the stored samples was calculated in the same manner as Example 3.
Column: XSelect CSH C18 by Waters Co., 5 μm, 4.6×250 mm
Guard column: XSelect CSH C18 by Waters. Co., 5 μm, 4.6×20 mm Guard Cartridge
Detection wavelength: 220 nm
Mobile phase A: 0.1% formic acid in water
Mobile phase B: 0.1% formic acid in acetonitrile
Measuring time: 20 minutes
Measuring sample injection rate: 50 μL
Column temperature: 40° C.
Mobile phase delivery: The mixing ratio of mobile phase A and mobile phase B was varied as shown in Table 5 for linear concentration gradient control.
as §1, with “Peptides 12 to 25, 27” for “Peptides 1, 2”, “and 28” for “and 6 to 9”, “for one” for “for 1”
The survival rate after correction for water for each peptide among the stored samples was calculated in the same manner as Example 4, and the results are shown in Table 7.
as §1, with “29” for “1, 2 and 6”, “34” for “9”, “for” for “for 1 week or”
The survival rate after correction for water for each peptide among the stored samples was calculated in the same manner as Example 4, and the results are shown in Table 7-2.

Row | SMILES | survival rate after correction for water, 60° C., 1-week storage [%] | survival rate after correction for water, 60° C., 2-week storage [%]
1 | CC[C@H](C)[C@H](NC(=O)CNC(=O)[C@H](Cc1nnn[nH]1)NC(=O)[C@H](CO)NC(=O)[C@H](Cc1c[nH]cn1)NC(C)=O)C(=O)N[C@@H](Cc1ccccc1)C(=O)N[C@H](C(=O)N[C@@H](Cc1nnn[nH]1)C(=O)N[C@@H](CO)C(=O)N[C@@H](Cc1ccc(O)cc1)C(=O)N[C@@H](CO)C(=O)N[C@@H](CCCNC(=N)N)C(=O)N[C@@H](Cc1ccc(O)cc1)C(=O)N[C@@H](CCCNC(=N)N)C(=O)N[C@@H](CCCCN)C(=O)N[C@@H](CCC(N)=O)C(=O)N[C@@H](CC(C)C)C(=O)N[C@@H](C)C(=O)N[C@H](C(=O)N[C@@H](CCCCN)C(=O)N[C@@H](CCCCN)C(=O)N[C@@H](Cc1ccc(O)cc1)C(=O)N[C@@H](CC(C)C)C(=O)N[C@@H](C)C(=O)N[C@@H](C)C(=O)N[C@H](C(=O)N[C@@H](C)C(N)=O)C(C)C)C(C)C)[C@@H](C)O [Peptide 20] (Ac-HS[Ala(1H-tetrazol-5-yl)]GIFT[Ala(1H-tetrazol-5-yl)]SYSRYRKQLAVKKYLAAVA-NH2) | 93.9 | 91.8
2 | CC[C@H](C)[C@H](NC(=O)CNC(=O)[C@H](Cc1nnn[nH]1)NC(=O)[C@H](CO)NC(=O)[C@H](Cc1c[nH]cn1)NC(C)=O)C(=O)N[C@@H](Cc1ccccc1)C(=O)N[C@H](C(=O)N[C@@H](Cc1nnn[nH]1)C(=O)N[C@@H](CO)C(=O)N[C@@H](Cc1ccc(O)cc1)C(=O)N[C@@H](CO)C(=O)N[C@@H](CCCNC(=N)N)C(=O)N[C@@H](Cc1ccc(O)cc1)C(=O)N[C@@H](CCCNC(=N)N)C(=O)N[C@@H](CCCNC(=N)N)C(=O)N[C@@H](CCC(N)=O)C(=O)N[C@@H](CC(C)C)C(=O)N[C@@H](C)C(=O)N[C@H](C(=O)N[C@@H](CCCNC(=N)N)C(=O)N[C@@H](CCCNC(=N)N)C(=O)N[C@@H](Cc1ccc(O)cc1)C(=O)N[C@@H](CC(C)C)C(=O)N[C@@H](C)C(=O)N[C@@H](C)C(=O)N[C@H](C(=O)N[C@@H](CC(C)C)C(N)=O)C(C)C)C(C)C)[C@@H](C)O [Peptide 21] (Ac-HS[Ala(1H-tetrazol-5-yl)]GIFT[Ala(1H-tetrazol-5-yl)]SYSRYRRQLAVRRYLAAVL-NH2) | 97.8 | 93.5
3 | CC[C@H](C)[C@H](NC(=O)CNC(=O)[C@H](Cc1nnn[nH]1)NC(=O)[C@H](CO)NC(=O)[C@H](Cc1c[nH]cn1)NC(C)=O)C(=O)N[C@@H](Cc1ccccc1)C(=O)N[C@H](C(=O)N[C@@H](Cc1nnn[nH]1)C(=O)N[C@@H](CO)C(=O)N[C@@H](Cc1ccc(O)cc1)C(=O)N[C@@H](CO)C(=O)N[C@@H](CCCNC(=N)N)C(=O)N[C@@H](Cc1ccc(O)cc1)C(=O)N[C@@H](CCCNC(=N)N)C(=O)N[C@@H](CCCNC(=N)N)C(=O)N[C@@H](CCC(N)=O)C(=O)N[C@@H](CC(C)C)C(=O)N[C@@H](C)C(=O)N[C@H](C(=O)N[C@@H](CCCNC(=N)N)C(=O)N[C@@H](CCCNC(=N)N)C(=O)N[C@@H](Cc1ccc(O)cc1)C(=O)N[C@@H](CC(C)C)C(=O)N[C@@H](C)C(=O)N[C@@H](C)C(=O)N[C@H](C(=O)N[C@@H](CC(C)C)C(=O)NCC(=O)N[C@@H](CCCNC(=N)N)C(=O)N[C@@H](CCCNC(=N)N)C(N)=O)C(C)C)C(C)C)[C@@H](C)O [Peptide 22] (Ac-HS[Ala(1H-tetrazol-5-yl)]GIFT[Ala(1H-tetrazol-5-yl)]SYSRYRRQLAVRRYLAAVLGRR-NH2) | 98.2 | –
4 | CC[C@H](C)[C@H](NC(=O)[C@H](C)NC(=O)[C@H](Cc1nnn[nH]1)NC(=O)[C@H](CO)NC(=O)[C@H](Cc1c[nH]cn1)NC(C)=O)C(=O)N[C@@H](Cc1ccccc1)C(=O)N[C@H](C(=O)N[C@@H](Cc1nnn[nH]1)C(=O)N[C@@H](CO)C(=O)N[C@@H](Cc1ccc(O)cc1)C(=O)N[C@@H](CO)C(=O)N[C@@H](CCCNC(=N)N)C(=O)N[C@@H](Cc1ccc(O)cc1)C(=O)N[C@@H](CCCNC(=N)N)C(=O)N[C@@H](CCCCN)C(=O)N[C@@H](CCC(N)=O)C(=O)N[C@@H](CC(C)C)C(=O)N[C@@H](C)C(=O)N[C@H](C(=O)N[C@@H](CCCCN)C(=O)N[C@@H](CCCCN)C(=O)N[C@@H](Cc1ccc(O)cc1)C(=O)N[C@@H](CC(C)C)C(=O)N[C@@H](C)C(=O)N[C@@H](C)C(=O)N[C@H](C(=O)N[C@@H](CC(C)C)C(N)=O)C(C)C)C(C)C)[C@@H](C)O [Peptide 23] (Ac-HS[Ala(1H-tetrazol-5-yl)]AIFT[Ala(1H-tetrazol-5-yl)]SYSRYRKQLAVKKYLAAVL-NH2) | 96.5 | 93.1
5 | CC[C@H](C)[C@H](NC(=O)CNC(=O)[C@H](Cc1nnn[nH]1)NC(=O)[C@H](C)NC(=O)[C@H](Cc1c[nH]cn1)NC(C)=O)C(=O)N[C@@H](Cc1ccccc1)C(=O)N[C@H](C(=O)N[C@@H](Cc1nnn[nH]1)C(=O)N[C@@H](C)C(=O)N[C@@H](Cc1ccc(O)cc1)C(=O)N[C@@H](CO)C(=O)N[C@@H](CCCNC(=N)N)C(=O)N[C@@H](Cc1ccc(O)cc1)C(=O)N[C@@H](CCCNC(=N)N)C(=O)N[C@@H](CCCCN)C(=O)N[C@@H](CCC(N)=O)C(=O)N[C@@H](CC(C)C)C(=O)N[C@@H](C)C(=O)N[C@H](C(=O)N[C@@H](CCCCN)C(=O)N[C@@H](CCCCN)C(=O)N[C@@H](Cc1ccc(O)cc1)C(=O)N[C@@H](CC(C)C)C(=O)N[C@@H](C)C(=O)N[C@@H](C)C(=O)N[C@H](C(=O)N[C@@H](CC(C)C)C(N)=O)C(C)C)C(C)C)[C@@H](C)O [Peptide 24] (Ac-HA[Ala(1H-tetrazol-5-yl)]GIFT[Ala(1H-tetrazol-5-yl)]AYSRYRKQLAVKKYLAAVL-NH2) | 98.1 | 94.3
6 | CC[C@H](C)[C@H](NC(=O)CNC(=O)[C@H](Cc1nnn[nH]1)NC(=O)[C@H](C)NC(=O)[C@H](Cc1c[nH]cn1)NC(C)=O)C(=O)N[C@@H](Cc1ccccc1)C(=O)N[C@H](C(=O)N[C@@H](Cc1nnn[nH]1)C(=O)N[C@@H](CO)C(=O)N[C@@H](Cc1ccc(O)cc1)C(=O)N[C@@H](CO)C(=O)N[C@@H](CCCNC(=N)N)C(=O)N[C@@H](Cc1ccc(O)cc1)C(=O)N[C@@H](CCCNC(=N)N)C(=O)N[C@@H](CCCCN)C(=O)N[C@@H](CCC(N)=O)C(=O)N[C@@H](C)C(=O)N[C@@H](C)C(=O)N[C@H](C(=O)N[C@@H](CCCCN)C(=O)N[C@@H](CCCCN)C(=O)N[C@@H](Cc1ccc(O)cc1)C(=O)N[C@@H](CC(C)C)C(=O)N[C@@H](C)C(=O)N[C@@H](C)C(=O)N[C@H](C(=O)N[C@@H](CC(C)C)C(N)=O)C(C)C)C(C)C)[C@@H](C)O [Peptide 25] (Ac-HA[Ala(1H-tetrazol-5-yl)]GIFT[Ala(1H-tetrazol-5-yl)]SYSRYRKQAAVKKYLAAVL-NH2) | 95.8 | 91.2
7 | CC[C@H](C)[C@H](NC(=O)CNC(=O)[C@H](Cc1nnn[nH]1)NC(=O)[C@H](CO)NC(=O)[C@H](Cc1c[nH]cn1)NC(C)=O)C(=O)N[C@@H](Cc1ccccc1)C(=O)N[C@H](C(=O)N[C@@H](Cc1nnn[nH]1)C(=O)N[C@@H](C)C(=O)N[C@@H](Cc1ccc(O)cc1)C(=O)N[C@@H](CO)C(=O)N[C@@H](CCCNC(=N)N)C(=O)N[C@@H](Cc1ccc(O)cc1)C(=O)N[C@@H](CCCNC(=N)N)C(=O)N[C@@H](CCCCN)C(=O)N[C@@H](CCC(N)=O)C(=O)N[C@@H](C)C(=O)N[C@@H](C)C(=O)N[C@H](C(=O)N[C@@H](CCCCN)C(=O)N[C@@H](CCCCN)C(=O)N[C@@H](Cc1ccc(O)cc1)C(=O)N[C@@H](CC(C)C)C(=O)N[C@@H](C)C(=O)N[C@@H](C)C(=O)N[C@H](C(=O)N[C@@H](CC(C)C)C(N)=O)C(C)C)C(C)C)[C@@H](C)O [Peptide 27] (Ac-HS[Ala(1H-tetrazol-5-yl)]GIFT[Ala(1H-tetrazol-5-yl)]AYSRYRKQAAVKKYLAAVL-NH2) | 96.4 | 93.5

Source: patent US12304932B2, “PACAP stabilized peptide” (SENJU PHARMACEUTICAL CO., LTD., priority 2017, dated 2025)
